We go through 94 molecules from a melting point compilation (Tetko et al.; mined from patent text by program, amines drawn as free bases though some values may be those of a salt).

For the molecule `Cc1cc(F)ccc1-c1nc(OCC(N)S(C)(=O)=O)nc2c1ccc(=O)n2-c1c(F)cccc1F` (centres undefined), the melting point (as a rule, the temperature of the solid-liquid transition) lay in the range of 95 to 99 °C. In the case of `COc1ccc(N2CCOCC2)c2sc(C(N)=S)nc12` it was 238 °C; in that of `COc1ccnc(C(=O)c2[nH]c3cc(Cl)ccc3c2N)c1`, 195 to 196 °C; in that of `CCc1nc2c(C)c(N)c(C)nc2[nH]1`, 153 to 155 °C. In the case of `O=C(O)/C=C(\c1cc(F)cc(F)c1)C(F)(F)F`, the melting point fell in the range of 129 to 130 °C. In the case of `CCn1nc(OCCCc2ccc(OCCOC)cc2OCc2ccc(C(F)(F)F)cc2)cc1CCC(=O)O` it was 112 to 113 °C. The result for `CCOc1nn(C(=O)NS(=O)(=O)c2c(C(=O)OC)csc2C)c(=O)n1C` reads 163 °C; that for `COc1ccc(-c2[nH]cnc2-c2cc(OC)c(N)c(OC)c2)cc1O`, 142 to 144 °C.

Take `CN(C)c1ccnc(CSc2c[nH]c3ccccc23)c1`: the melting point was 189 to 191 °C. Molecule `CCOC(=O)COc1cccc(-c2nc3ncccc3[nH]2)c1` yielded a melting point of 158 °C. Consider `Nc1ccc(C23CC2C(=O)N(Cc2ccccc2)C3=O)cc1` (centres undefined), for which the melting point fell in the range of 147 to 149 °C. Turning to `COc1cc(C2CCC(c3cc(OC)c(OC)c(OC)c3)C2N)cc(OC)c1OC` (centres undefined), the melting point lay in the range of 117 to 119 °C. As for `NCc1cc(Cl)ccc1O`, the melting point was 160 to 162 °C.

As for `COCOc1cc(OC)cc(C)c1C(=O)O`, the melting point is 111 to 112 °C. In turn, `C=CCOc1ccc2cc(S(N)(=O)=O)sc2c1` returned a melting point of 101 to 102 °C.

Molecule `Brc1ccc(N2CCN(CCCOc3ccc(C4=NCCO4)cc3)CC2)nn1` had a melting point of 169 °C. In turn, `COC(=O)c1cc(OCc2ccc3ccccc3n2)no1` gave a melting point of 133 to 134 °C. The molecule `CS(=O)(=O)Nc1ccc2c(c1)C(=O)C1(CC1)O2` had a melting point of 152 to 154 °C. For the molecule `FC(F)(F)c1ccc(C=Cc2nc[nH]n2)cc1`, the melting point is 141 to 143 °C. In turn, `O=C(O)Cn1cc(Cc2cccc([N+](=O)[O-])c2)c2ccccc21` had a melting point of 163 to 165 °C. `CCCn1c2cc(OC)ccc2c2oc(C(=O)Cl)cc21` registered a melting point of 195 to 196 °C. Molecule `COC(=O)CCc1cc2cc(Br)ccc2n1S(=O)(=O)c1ccccc1` had a melting point of 109 to 113 °C. Consider `Cc1cc(Oc2ncc(C(F)(F)F)cc2Cl)nn1C(=O)NC1CC1`, for which the melting point was in the range of 98 to 99 °C. `CCC(CC)(NC(C)=O)c1ccc(CN2CCN(c3ccccc3)CC2)cc1` gave a melting point of 139 to 140 °C. The molecule `C[C@H](O)CCOc1c(-c2ccc(S(C)(=O)=O)cc2)cnn(-c2ccc(F)c(F)c2)c1=O` registered a melting point of 128 to 130 °C. `CCCCCCCCCCCCCCCCOc1coc(C(=O)O)cc1=O` showed a melting point of 126 to 130 °C.

The molecule `CC(=O)OC(CS(=O)(=O)CC(OC(C)=O)c1ccc(N)cc1)c1ccc(N)cc1` (centres undefined) displayed a melting point of 92 to 93 °C. `O=C1N[C@H]2CCN(C(=O)OCc3ccccc3)[C@H]2[C@H]1C1CC1` (relative stereo) showed a melting point of 141 to 149 °C.

Turning to `CCOC(=O)c1cnc2c3cc(NS(C)(=O)=O)ccc3ncn2c1=O`, the melting point is 310 to 312 °C. The molecule `CCOCc1nc2c(N)nc3ccccc3c2n1NCCCNC(=O)Nc1ccccc1` had a melting point of 177 to 179 °C. The molecule `CC(C)OC(=O)C1=C2SCC(=CC(=O)Sc3ccccc3)N2CC1C` (centres undefined) gave a melting point of 153 to 154 °C. With `COc1ccc(-c2ccc(C(=O)Nc3ccc4cc(CN5CCCC5)cnc4c3)cc2)cc1`, the melting point lay in the range of 202 to 204 °C. Molecule `Cn1c(C(F)(F)F)ccc(-c2ccc(Cl)cc2F)c1=O` showed a melting point of 103 to 104 °C.

In turn, `COC(=O)C(OC)Oc1ccc(C2CCN(c3ccncc3)CC2)cc1` (centres undefined) had a melting point of 127 to 129 °C. Take `COc1cc(CCCCCCCO)ccc1OCc1nc(-c2ccccc2)oc1C`: the melting point was 78 to 79 °C. Turning to `CC1(C)CCC(C)(C)c2cc(N)ccc21`, the melting point fell in the range of 63 to 65 °C.

The molecule `O=C(O)C[C@@H](c1ccccc1)c1c[nH]c2cc(OCCCNc3ccccn3)ccc12` registered a melting point of 137 °C. As for `CCCc1oc2ccccc2c1C(=O)c1ccc(OCCBr)cc1`, the melting point fell in the range of 68 to 70 °C. As for `CCOCc1nc2c(N)nc3cc(-c4ccncc4)ccc3c2n1CC(C)(C)O`, the melting point was 220 to 221 °C. As to `C#CCn1cc(C(=O)OCC)c(C(F)(F)F)c1`, the melting point stood at 58 °C. Take `CCOC(=O)c1cc(O)c2nc(C)c(C)n2c1`: the melting point was in the range of 219 to 221 °C.

In turn, `OCCCCOCCCCOCCCCOCCCCOCCCCO` gave a melting point of 34.5 to 36.5 °C. The molecule `Nc1c(Cl)ncnc1NCCc1ccccc1` displayed a melting point of 156 to 157 °C. In turn, `COCCOc1ccc(-c2sc(N3C(=O)c4ccccc4C3=O)c(C(=O)c3ccc(Cl)cc3)c2CBr)cc1` showed a melting point of 142 to 145 °C. The result for `COc1ccc(-c2ccc(C(=O)Nc3cc4ncc(CN5CCCC5)cc4cc3C)c(F)c2)cc1` reads 187 to 190 °C; that for `CCOC(=O)c1[nH]c(CC)c(CC)c1CC`, 47 to 49 °C. On to `O=C(Nc1nccs1)C(CC1CCCC1)c1ccc([N+](=O)[O-])cc1` (centres undefined), for which the melting point was 134 to 136 °C. The result for `O=C1CCC(NC(=O)OCc2ccccc2)(C(=O)OCc2ccc([N+](=O)[O-])cc2)O1` (centres undefined) reads 127 to 128 °C; that for `COC(=O)CCCOc1cc([N+](=O)[O-])c(CO)cc1OC`, 100 °C.

`COc1ccc(C(=O)C(=O)NC(C)C)s1` came in with a melting point of 72 to 73 °C. With `O=c1[nH]c(=O)n(C2CC(O)C(CO)O2)cc1C(Cl)=CI` (centres undefined), the melting point lay within 109 to 111 °C. Molecule `O=Cc1ccc(OCc2ccccc2)cn1` registered a melting point of 68 to 70 °C. `CCOC(=O)c1ncc2[nH]c3cccc(COC(C)=O)c3c2c1COC`: the melting point was 129 to 133 °C. `CCCCn1nnnc1-c1ccc(C(=O)NCC2CCCC2(C)C)cc1` (centres undefined) registered a melting point of 106 to 109 °C. Molecule `C=Cc1ccc(-c2nc(C)c3c(n2)sc2c(OCC)nc(N4CCNCC4)nc23)cc1` yielded a melting point of 165 to 166 °C.

Consider `Cc1cccc2c(=O)n([C@H](C)[C@](O)(Cn3cncn3)c3ccc(F)cc3F)cnc12`, for which the melting point is 141 to 144 °C. `COC(=O)c1cc(S(N)(=O)=O)ccc1S(=O)(=O)CCCO` displayed a melting point of 124 to 126 °C.

Molecule `CCOC1OC(C(O)CO)C(O)C1O` (centres undefined) returned a melting point of 59 to 60 °C. As for `CCCCn1c(C)c(C)cc(NC(=O)OCc2ccccc2)c1=O`, the melting point was 65 to 66 °C. On to `Cn1cnc(C2C(Cl)=CC=CC2(F)Cc2ccc(Cl)cc2)n1` (centres undefined), for which the melting point was in the range of 78.5 to 80.5 °C. `CCOC(=O)c1ccc(-c2ccc(-c3ccccc3)c(-c3ccc4c(c3)C(C)(C)CCC4(C)C)c2)nc1` gave a melting point of 105 to 107 °C. In turn, `CCOC(=O)C1C(=O)N(Cc2ccc(Br)cc2F)C(=O)c2cccn21` (centres undefined) gave a melting point of 114 to 115 °C. As to `CC1C(C)(C)C2CCc3cnoc3C2C1(C)C` (centres undefined), the melting point turned out to be 82.3 °C. `CC(C)Cc1sc(-c2nccs2)c2c1C(=O)CC(C)(C)C2` yielded a melting point of 98 to 100 °C.

On to `CCOC(=O)C1CCn2c(cc3ccccc32)C1` (centres undefined), for which the melting point lay within 70 to 72 °C. Molecule `Cc1nc2c(OCc3ccccc3)cc(C(=O)N(C)C)cn2c1C` showed a melting point of 160 °C. In the case of `Nc1ccccc1SCc1noc(CSc2ccccc2N)n1`, the melting point worked out at 68 °C. In the case of `CC(=O)NC1CCc2c(C(=O)O)[nH]c(C(=O)O)c2C1` (centres undefined), the melting point fell in the range of 233 to 235 °C. `CCOC(=O)c1cnc2n(c1=O)C(C)CCC2C(=S)NC` (centres undefined) displayed a melting point of 199 to 200 °C. With `Nc1cc(Cl)cc(Cl)c1C(=O)NCc1ccc(Cl)cc1`, the melting point was in the range of 174 to 178 °C. In the case of `O=C(O)c1ccc(NC(=O)[C@H](CO)NS(=O)(=O)c2ccc(Cl)cc2)cc1` it was 231 to 234 °C; in that of `Cc1cc(Cl)nc2ccc(Br)cc12`, 139 to 140 °C.

`O=C1C2CCCC2=Nc2ccc(Cl)cc2N1Cc1ccccc1` (centres undefined) showed a melting point of 134 to 136 °C.

For `Nc1ccc2c(c1)CN1CC(=O)NC1=N2`, the melting point is over 275 °C. In turn, `CP(C)(=O)OCc1ccccc1` returned a melting point of 41 to 45 °C. In the case of `CC(Cc1c[nH]c2ccccc12)(NC(=O)OC1C2CC3CC(C2)CC1C3)C(=O)c1ccccc1CCCC(=O)O` (centres undefined) it was 123 to 137 °C; in that of `O=C1Cn2cccc2Sc2ccc(Cl)cc21`, 106 to 107 °C; in that of `Cn1ccc2cc(N3Cc4ccc(OCC(F)(F)F)cc4C3=O)ccc21`, 182 to 188 °C. For the molecule `CN1Cc2c(-c3nc(CCl)cs3)ncn2-c2ccccc2C1=O`, the melting point lay within 248 to 249 °C. In the case of `BrC1=Cc2ccccc2Nc2ccccc21` it was 65 to 69 °C. In the case of `CO/C=C(/C(=O)OC)c1ccccc1Oc1cc(N)ncn1` it was 158 to 160 °C; in that of `CCOc1cc(COc2nn(Cc3ccccc3)cc2C=O)ccc1OCc1nc(-c2ccco2)oc1C`, 144 to 145 °C. With `Cc1nc2ccc(N(C)C)nn2c1S(N)(=O)=O`, the melting point stood at 227 °C.

`CCCC(=O)CCCC(=O)CCCSCCCC(C)(C)C(=O)OCC` displayed a melting point of 104 to 105 °C. The molecule `COc1cc2c(c(OC)c1OC)CC(CCCCCCC1Cc3cc(OC)c(OC)c(OC)c3C1)C2` (centres undefined) displayed a melting point of 69 to 70 °C. Consider `S=C(Nc1ccc(Cl)cc1)NC1CCCCC1`, for which the melting point is 179 to 180 °C.

The molecule `COC(=O)C=Nc1cc(Cl)ccc1C(=O)O` gave a melting point of 201 to 203 °C. Consider `CC1(C)CCC(C)(C)c2cc(-c3cc(-c4ccc(C(=O)O)nc4)ccc3-c3ccccc3)ccc21`, for which the melting point was 160 to 162 °C. For the molecule `CCCC(C(=O)OCC)n1cnc(C(N)=O)c1` (centres undefined), the melting point was found to be 95 °C. As for `CCOC(=O)C1Cc2cc3c(-c4ccccc4F)noc3c(C)c2O1` (centres undefined), the melting point fell in the range of 124 to 125 °C.

Consider `CSc1sc(-c2cccnc2)c2c1C(=O)C(=CO)C(C)(C)C2`, for which the melting point is 154 to 156 °C. With `CNC(=NC#N)NCCSCc1nsc(NC(=N)N)n1`, the melting point lay within 198 to 199 °C. In the case of `Nc1ccc(CC(=O)N2CCCC2)cc1N` it was 105 to 108 °C; in that of `CCOC(=O)COc1cccc(/C=C/c2nc3ccccc3s2)c1`, 150 to 151 °C.
